{"source": "patent US7781423B2", "about": "“Compounds to promote regeneration of bone marrow” (priority 2007, dated 2010)", "key": {"[1]": {"tested_on": "lethally irradiated mice that received bone marrow transplantation", "assay": "Blood profile after bone marrow transplantation following lethal irradiation", "format": "in vivo, C57B1 mice", "settings": "for Platelets / RBC / WBC: CCompound1 4.5 mg per kg i.p. daily, day -3 to day +3", "method": "Twelve week old female C57B1 mice were used for the experiments. Each drug was administered intraperitoneally once a day for 5 consecutive days. In the second, third, fourth and fifth groups, mice were administered 120 mg/kg of cyclophosphamide (CP). In a third group, mice were also administered 4.5 mg/kg of CCompound1. In a fourth group, mice were also administered 4.5 mg/kg of CCompound3. In a fifth group, mice were also administered 2.0 mg/kg of CCompound26. In the first group, mice received no treatment. Each group included 5 animals. After 3 hours of the last treatments (on day 5), blood samples were collected from the ocular venous plexus of ether-anesthetized mice by retro-orbital venipuncture in heparanized tubes. Complete cell counts (RBC, red blood cell; WBC, white blood cell; PTL, platelet) were determined with a Sysmex F-800 hematology analyzer (To a Medical Electronics Co. LTD, Kobe, Japan). All data shown in Table 2 are the average of 5 independent determinations.\nIn this experiment the goal was to determine if CCompound1 can enhance expansion of transplanted bone marrow cells infused after applying a lethal dose of whole body irradiation (which reduces the number of bone marrow cells by more than 90%). C57B1 female mice (10-14 weeks old) were subjected to 900 cGy whole body irradiation from a ^137Cesium source which was followed within 6 hours by infusion of one million donor nucleated bone marrow cells by tail vein injection. Starting 3 days before irradiation, animals received daily 4.5 mg per kg of CCompound1 via intraperitoneal injection; this treatment also was provided on day 0 and once daily for the subsequent 3 days after irradiation. In another group, mice were injected only with physiological saline.\nBone marrow cells were collected on day 0 from non-irradiated animals as well as on days 6, 14, 28 and 42 after irradiation and bone marrow transplantation. Nucleated bone marrow cells were quantified and CFU-GM assay was performed as described in Example 3 while blood profiling was performed as described in Example 1. For each group, on the indicated days bone marrow and blood samples were collected from 3 animals. Each value presented in Table 5 and Table 6 represents the mean±st. dev. of 3 samples (derived from 3 animals)."}, "MTT cell viability assay": {"assay": "MTT cell viability assay", "format": "cell-based", "settings": "human, read-out: decrease of viability", "method": "The NIH 3T3 (normal) mouse fibroblast, A431 human epidermoid adenocarcinoma, and MCF-7 human breast cancer cells were cultured in DMEM medium containing 10% FBS. The MEL-28 human melanoma cells were cultured in MEM medium containing 10% FBS. The HT-29 human colon adenocarcinoma cells were cultured in McCoy's 5a medium containing 10% FBS. The A549 human lung carcinoma cells were maintained in Ham's F12K medium containing 10% FBS. T47D cells were cultured in 12-well plates in RPMI 1640 medium supplemented with 0.2 IU bovine insulin and 10% FBS. CaOV-3 human ovarian cancer cells were cultured in DMEM containing 10% FBS. ZR-75-1 human estrogen receptor-positive breast cancer cells were maintained in RPMI 1640 medium supplemented with 10% FBS. HTB-157 human fetal fibroblasts, MEL-24 human malignant melanoma cells, Hep G2 human hepatoblastoma cells, and CaCO-2 human colon adenocarcinoma cells were maintained in Eagles's MEM containing 10% FBS. MB-231 human estrogen receptor-negative breast cancer cells were maintained in Leibovitz's L-15 medium supplemented with 10% FBS.\nIn the actual experiments, cells were seeded into 96-well plates and cultivated up to either ˜70-90% confluency (survival experiments) or 20-25% confluency (proliferation experiments). Then the medium was changed for serum-free medium (survival experiment) or 2% serum-containing medium (proliferation experiment). The incubation continued for 72 hours followed by the MTT assay to determine cell viability. This calorimetric assay is based on the ability of living cells, but not dead cells, to reduce 3-(4,5-dimethyl thiazol-2-yl)-2,5-diphenyltetrazolium bromide. Carmichael, J, De Graff, W. G., Gazdar, A. F., Minna, J. D. and Mitchell, J. B., “Evaluation of tetrazolium-based semiautomated calorimetric assay: Assessment of chemosensitivity testing,” Cancer Res., 47, 936-942 (1987)."}, "MXT mammary tumor": {"tested_on": "MXT mammary tumor", "format": "in vivo", "settings": "MXT tumor-bearing, CP-treated mice, by day 22", "method": "This experiment was designed to determine whether in a tumor model CC compounds could prevent cyclophosphamide-induced loss of body weight resulting from the depression of blood marrow function. Specified pathogen free (SPF) hygienic category colonies of first generation hybrid BDF1 (C57B1 female×DBA/2 male) adult female mice, weighing 23-24 g, were used. The animals were kept in macrolon cages at 22-24° C. (45-55% humidity), with a lighting regimen of 12/12 h light/dark. […] The animals used in these studies were cared for according to the “Guiding Principles for the Care and Use of Animals” based upon the Helsinki declaration.\nMXT mammary tumor pieces (containing about 10^6 tumor cells) were implanted subcutaneously to develop the tumors. After six days when the tumor-bearing mice were first treated, the sizes of the tumors were in the 0.26-0.30 cm^3 range. All compounds used were dissolved in 0.9% sodium chloride and applied subcutaneously (CC compounds) or intraperitoneally (CP) in 50 μl volume. Tumor volume was determined by using calipers in three dimensions; this technique is well known to one having ordinary skill in the art. Tumor volume was calculated according to the generally accepted formula: V=a^2×b×π/6, where “a” and “b” mean the shortest and longest diameter, respectively, of the measured tumor.\nIn the first group, animals received no treatment. In the second group, mice were administered 120-mg/kg of CP on day 6 followed by seven consecutive daily treatments with the same dose. In the third group, each treatment with CP was associated with administration of 4.5-mg/kg of CCompound1. In the fourth group, each treatment with CP was associated with administration of 4.5-mg/kg of CCompound3. In the fifth group, each treatment with CP was associated with administration of 2.0-mg/kg of CCompound26. Each group included 7 mice. All data represent the average of 7 determinations (one determination with each mouse in the group)."}, "[2]": {"settings": "after bone marrow transplantation"}, "[3]": {"settings": "day 6 after 900 cGy irradiation and bone marrow transplantation"}, "[4]": {"settings": "day 14 after 900 cGy irradiation and bone marrow transplantation"}, "[5]": {"settings": "day 28 after 900 cGy irradiation and bone marrow transplantation"}, "[6]": {"settings": "day 42 after 900 cGy irradiation and bone marrow transplantation"}}, "note": "Read-outs that look alike come from different tables or passages of the source."}
{"smiles": "Cc1c(OCC(O)C[N+](C)(C)C)cc2c(=O)c3ccccc3sc2c1C.[Cl-]", "note": "(stereo not drawn) [CCcompound1, [3-(3,4-Dimethyl-9-oxo-9H-thioxanthen-2-yloxy)-2-hydroxypropyl]trimethyl-ammonium chloride]", "values": [{"measurement": "time to recover platelet count similar to about 100,000 per 1 μl from transplanted bone marrow stem cells", "setting": "[1]; [2]", "value": "less than 6 days"}, {"measurement": "time to recover white blood cell count similar to 2,500 per 1 μl from transplanted bone marrow stem cells", "setting": "[1]; [2]", "value": "9 to 11", "unit": "days"}, {"measurement": "time to about 50% recovery of white blood cells", "setting": "[1]; after lethal irradiation and bone marrow transplantation", "value": "about 14 days"}, {"measurement": "Platelets", "setting": "[1]; [3]", "value": "243 ± 19 ×10^3/mm^3"}, {"measurement": "RBC", "setting": "[1]; [3]", "value": "4.8 ± 1.2 ×10^6/mm^3"}, {"measurement": "WBC", "setting": "[1]; [3]", "value": "1.6 ± 0.3 ×10^3/mm^3"}, {"measurement": "Platelets", "setting": "[1]; [4]", "value": "438 ± 112 ×10^3/mm^3"}, {"measurement": "RBC", "setting": "[1]; [4]", "value": "9.1 ± 1.1 ×10^6/mm^3"}, {"measurement": "WBC", "setting": "[1]; [4]", "value": "3.3 ± 0.4 ×10^3/mm^3"}, {"measurement": "Platelets", "setting": "[1]; [5]", "value": "716 ± 138 ×10^3/mm^3"}, {"measurement": "RBC", "setting": "[1]; [5]", "value": "10.9 ± 1.3 ×10^6/mm^3"}, {"measurement": "WBC", "setting": "[1]; [5]", "value": "5.2 ± 0.8 ×10^3/mm^3"}, {"measurement": "Platelets", "setting": "[1]; [6]", "value": "776 ± 112 ×10^3/mm^3"}, {"measurement": "RBC", "setting": "[1]; [6]", "value": "11.0 ± 0.7 ×10^6/mm^3"}, {"measurement": "WBC", "setting": "[1]; [6]", "value": "6.6 ± 0.4 ×10^3/mm^3"}, {"measurement": "cytotoxicity at 72 h, 50 μM", "setting": "MTT cell viability assay; CaOV-3 ovarian cancer cells", "value": "20 to 40", "unit": "%"}, {"measurement": "cytotoxicity at 72 h, 50 μM", "setting": "MTT cell viability assay; Hep G2 hepatoblastoma cells", "value": "20 to 40", "unit": "%"}, {"measurement": "cytotoxicity at 72 h, 50 μM", "setting": "MTT cell viability assay; MEL-28 melanoma cells", "value": "20 to 40", "unit": "%"}, {"measurement": "cytotoxicity at 72 h, 50 μM", "setting": "MTT cell viability assay; ZR-75-1 estrogen receptor-positive breast cancer cells", "value": "20 to 40", "unit": "%"}, {"measurement": "effect on body weight", "setting": "MXT mammary tumor", "value": "body weight gain"}, {"measurement": "solubility in water", "setting": "Solubility in water", "value": "soluble in water"}]}
